Assay results from US5288723A, “A composition and a method of using veratridine and epinephrine as a local anesthetic” (priority 1991, dated 1994).
“Also recorded” adds a separate entry of the source. Like-named read-outs stand apart in the source and are kept apart here.

How the values were obtained:
[1] = tested on: B-fibers of rabbit vagus nerve; experiment: Extracellular recording of compound action potentials (APc), desheathed vagus nerve, B-fibers; set-up: species or system New Zealand white rabbit; settings: for inhibition at 0.5 µM / activity at 0.5 µM: Oryctolagus cuniculus, 0.5 μM VTD; for inhibition at 0.5 µM: 70 min, 50 Hz, mean ± SEM; for activity at 0.5 µM: read-out: Amplitude of single APc elevation relative to amplitude at beginning of VTD exposure
Experimental: Adult male New Zealand white rabbits (3±0.5 kg) were pretreated intramuscularly with a mixture of ketamine (200 mg), xylazine (20 mg) and atropine (0.4 mg) for sedation. Ten minutes after this treatment, the animals were anesthetized with diethyl ether. After cessation of respiration, a longitudinal skin incision was made, and the cervical portion of both vagus nerves was dissected. The vagus nerves were temporarily stored at room temperature (22° C.) in a beaker containing modified HEPES Liley (HL) solution stirred constantly by aeration with a mixture of 95% oxygen and 5% carbon dioxide.
The modified HL solution used for bathing the nerve and subsequent drug perfusion consisted of (in mM): NaCl, 118.0; KCl, 5.0; CaCl2 2H2 0, 2.0; MgCl2 6H2 0, 1.0; α-D(+)-glucose, 11.0; NaHC03, 25.0; and N-2-hydroxy-ethylpiperazine-N-2-ethanesulfonic acid (HEPES) buffer, 5.0 mM. The pH was adjusted to 7.4±0.05 by addition of 1 N NaOH. The perfusion solution was bubbled with a gas mixture of 95% oxygen and 5% carbon dioxide at a vigorous rate just before flowing onto the nerve. The pH was stabilized by the HEPES buffer and maintained at 7.4.
VTD free base (no. V-5754, lot 58F-7828, Sigma, St. Louis, Mo.) was stored in a desiccator below 0° C. and was used to prepare a 2 mM stock solution in dimethyl sulfoxide [DMSO], Fisher Scientific, lot 861316), which also was stored at below 0° C. VTD, a steroidal alkaloid (FIG. 2A) that is produced by certain lilies, has a solubility limited to approximately 10^-3 M in aqueous slat solutions [Kupchan and By, "The Veratrum Group," in Alkaloids, Vol. 10, Manske, R.H.F. (ed.), New York, Academic Press (1968), pp. 193-285]. The stock VTD solution was diluted to final concentrations of 0.2-10 μM by the addition of HL. The maximum equivalent content of DMSO is 0.5%, and in three control experiments we detected no change in electrophysiologic behavior with 1% DMSO.
The nerves were cleaned and desheathed by microdissection before mounting in an airtight chamber (FIG. 2B) [Gissen et al., Anesthesiology 53:467-474 (1980)]. Petroleum jelly (White Petrolatum, Denison Laboratories) seals separated a central, 11-mm length of the nerve from the lateral pools, used for stimulating and recording with electrodes made of platinum wire. The central section of the chamber (volume 0.25 ml) was perfused with HL solution at 0.5 ml.min.^-1. The lateral pools containing the moistened ends of the nerves adsorbed to the electrodes were filled with paraffin oil. The APc s were propagated over 21 mm, from the stimulating to the recording electrodes, with the proximal recording electrodc located 4.5 mm from the edge of the central, drug exposure chamber. Thus, measured APc s were conducted in nerve exposed to drug for half of the conduction pathway, and had been conducting through drug-free medium over a distance containing at least two or three nodes of Ranvier (in the fastest-conducting fibers), before reaching the recording electrodes.
The signal from the nerve was amplified 50 times (model AK 475 operational amplifier, Metametrics, Carlisle, Mass.) and passed to the oscilloscope preamplifiers (model 5A 22N, Tektronix). The preparation was not considered acceptable unless the APc signals from the nerve exceeded 1.5 mV for A-fibers, 0.5 mV for B-fibers, and 0.3 mV for C-fibers.
Each nerve was exposed to only one VTD concentration, and each concentration was tested in four or five separate nerves, except in tie sheathed nerves, for which only two nerves were used. The temperature was 20°-22° C.
The standard protocol used for testing the action of VTD was to record the APc elevations in control HL solution for 30-60 min. before adding VTD; for 60-75 min. during VTD application; and for 60-75 min. after replacement with VTD-free HL. […]

rat sciatic nerve [2] = experiment: Motor block of rat sciatic nerve in vivo (toe curling and/or foot dragging); set-up: species or system Male Sprague-Dawley rats; settings: for duration, MOTOR / onset, MOTOR: mean ± SEM
Experimental: (§1) Male Sprague-Dawley rats (200-250 g) were divided into 4 groups of 10 each. 0.1 ml of VTD alone at 0.2, 0.5 or 0.7 mM or vehicle (saline) was injected at the depression between the femoral head and the hip. The same animals were injected with VTD with epinephrine (EPI, 1:200,000) one week later, using the previously uninjected leg. Motor and sensory functions were rated by the respective monitoring of toe curling and/or foot dragging, and by testing the nocifensive withdrawal reflex to pinch of the foot pad of the injected hindlimb. Saline alone affected neither function.

rat sciatic nerve [3] = experiment: Sensory block of rat sciatic nerve in vivo (nocifensive withdrawal reflex to pinch of the foot pad); set-up: species or system Male Sprague-Dawley rats; settings: for fraction block, SENSORY / duration, SENSORY / onset, SENSORY: 0.1 ml; for duration, SENSORY / onset, SENSORY: mean ± SEM
Experimental: as §1

SMILES: COc1ccc(C(=O)OC2CCC3(C)C4CCC5C6(O)CC(O)C7(O)C(CN8CC(C)CCC8C7(C)O)C6(O)CC53OC24O)cc1OC (centres unmarked) [VTD, veratridine]
- Reversal of use-dependent effects on B-fibers by washing ([1]; 75 min. of washing with drug-free HL): not abolished completely
- Single-stimulus APc after VTD compared with no-VTD controls ([1]; B-fibers, 0.5 μM, 60 min. in VTD, P>0.05): no significant difference
- Reversal of use-dependent depression by washing ([1]; B-fibers, VTD-free HL wash): did not reverse
- inhibition at 0.5 µM ([1]; B-fibers, after 70 min. in VTD, P < 0.001 vs control, read-out: Percent inhibition of the tenth APc in a train compared to the first, VTD): 55 ± 2.8%
- inhibition at 0.5 µM ([1]; B-fibers, after 70 min. wash, read-out: Percent inhibition of the tenth APc in a train compared to the first, HL (Wash)): 52.6 ± 3.7%
- activity at 0.5 µM ([1]; B-fibers, during VTD exposure): 105 ± 23%
- activity at 0.5 µM ([1]; B-fibers, wash period): 108 ± 31%
- Onset of motor block (summary) (rat sciatic nerve [2]; VTD alone, 0.2-0.7 mM): 6 to 12 min
- duration, MOTOR (rat sciatic nerve [2]; [VTD] 0.2 mM, 0.1 ml): 124 ± 19 min
- fraction block, MOTOR (rat sciatic nerve [2]; [VTD] 0.5 mM, 0.1 ml): 10/10
- duration, MOTOR (rat sciatic nerve [2]; [VTD] 0.5 mM, 0.1 ml): 211 ± 31 min
- onset, MOTOR (rat sciatic nerve [2]; [VTD] 0.5 mM, 0.1 ml): 10 ± 3 min
- duration, MOTOR (rat sciatic nerve [2]; [VTD] 0.7 mM, 0.1 ml): 285 ± 39 min
- onset, MOTOR (rat sciatic nerve [2]; [VTD] 0.7 mM, 0.1 ml): 6 ± 2 min
- Motor function inhibition compared with bupivacaine and lidocaine (rat sciatic nerve [2]; rat sciatic nerve): more potent and longer acting inhibitor of motor function than either bupivacaine or lidocaine; also recorded: more potent and longer-acting inhibitor of motor function than either bupivacaine or lidocaine
- Frequency of sensory block (summary) (rat sciatic nerve [3]; VTD alone, vs motor block): less frequently
- fraction block, SENSORY (rat sciatic nerve [3]; [VTD] 0.2 mM): 1/10
- duration, SENSORY (rat sciatic nerve [3]; [VTD] 0.2 mM): 51 min
- onset, SENSORY (rat sciatic nerve [3]; [VTD] 0.2 mM): 13 min
- fraction block, SENSORY (rat sciatic nerve [3]; [VTD] 0.5 mM): 2/10
- duration, SENSORY (rat sciatic nerve [3]; [VTD] 0.5 mM): 224 ± 44 min
- onset, SENSORY (rat sciatic nerve [3]; [VTD] 0.5 mM): 3 ± 1 min
- fraction block, SENSORY (rat sciatic nerve [3]; [VTD] 0.7 mM): 4/10
- duration, SENSORY (rat sciatic nerve [3]; [VTD] 0.7 mM): 115 ± 1 min
- onset, SENSORY (rat sciatic nerve [3]; [VTD] 0.7 mM): 10 ± 2 min
- Block of nocifensive reflexes compared with bupivacaine and lidocaine (rat sciatic nerve [3]; rat sciatic nerve): blocked less predictably
